Numbered stars: 1 amine (or outer) side, 2 acyl side, 3 side chain; on linkers, the order of the positions; unused ones are H or OH. Square brackets hold non-standard residues; d marks the D form. Peptide text beside a SMILES is read from it. * marks the point of attachment. ξ: configuration not given here. X1 = O=C(O)c1cc(NC(=S)*)ccc1-c1c2ccc(=O)cc-2oc2cc(O)ccc12; N(2-(2-PhOPh)Et)Gly = O=C(O)CNCCc1ccccc1Oc1ccccc1; Gly(N-3,5-(OMe)2-Ph) = COc1cc(NCC(=O)O)cc(OC)c1; X2 = COc1ccc([C@H](C)N(CC(=O)[*:2])[*:1])cc1; Ala(cPent) = N[C@@H](CC1CCCC1)C(=O)O; N((CH2)3OiPr)Gly = CC(C)OCCCNCC(=O)O; Cbz = O=C(OCc1ccccc1)*; ξI = CCC(C)C(N)C(=O)O; βAla = NCCC(=O)O; ξA = CC(N)C(=O)O

Experiment [1] concerns the target Tumour suppressor protein p53/Mdm4 (Homo sapiens, UniProt O15151+P04637). In words: Inhibition of human DMX-p53 protein-protein interaction […]. In kind it is protein assay. (In general: ITC needs no label: the signal is the heat of the interaction.)
For experiment [2], the target named is Histone-lysine N-methyltransferase 2A (Homo sapiens, UniProt Q03164). Put plainly: Competitive binding affinity to full length wild type MLL (unknown origin).
Sequence of Histone-lysine N-methyltransferase 2A (Q03164 1-2718 limits assumed): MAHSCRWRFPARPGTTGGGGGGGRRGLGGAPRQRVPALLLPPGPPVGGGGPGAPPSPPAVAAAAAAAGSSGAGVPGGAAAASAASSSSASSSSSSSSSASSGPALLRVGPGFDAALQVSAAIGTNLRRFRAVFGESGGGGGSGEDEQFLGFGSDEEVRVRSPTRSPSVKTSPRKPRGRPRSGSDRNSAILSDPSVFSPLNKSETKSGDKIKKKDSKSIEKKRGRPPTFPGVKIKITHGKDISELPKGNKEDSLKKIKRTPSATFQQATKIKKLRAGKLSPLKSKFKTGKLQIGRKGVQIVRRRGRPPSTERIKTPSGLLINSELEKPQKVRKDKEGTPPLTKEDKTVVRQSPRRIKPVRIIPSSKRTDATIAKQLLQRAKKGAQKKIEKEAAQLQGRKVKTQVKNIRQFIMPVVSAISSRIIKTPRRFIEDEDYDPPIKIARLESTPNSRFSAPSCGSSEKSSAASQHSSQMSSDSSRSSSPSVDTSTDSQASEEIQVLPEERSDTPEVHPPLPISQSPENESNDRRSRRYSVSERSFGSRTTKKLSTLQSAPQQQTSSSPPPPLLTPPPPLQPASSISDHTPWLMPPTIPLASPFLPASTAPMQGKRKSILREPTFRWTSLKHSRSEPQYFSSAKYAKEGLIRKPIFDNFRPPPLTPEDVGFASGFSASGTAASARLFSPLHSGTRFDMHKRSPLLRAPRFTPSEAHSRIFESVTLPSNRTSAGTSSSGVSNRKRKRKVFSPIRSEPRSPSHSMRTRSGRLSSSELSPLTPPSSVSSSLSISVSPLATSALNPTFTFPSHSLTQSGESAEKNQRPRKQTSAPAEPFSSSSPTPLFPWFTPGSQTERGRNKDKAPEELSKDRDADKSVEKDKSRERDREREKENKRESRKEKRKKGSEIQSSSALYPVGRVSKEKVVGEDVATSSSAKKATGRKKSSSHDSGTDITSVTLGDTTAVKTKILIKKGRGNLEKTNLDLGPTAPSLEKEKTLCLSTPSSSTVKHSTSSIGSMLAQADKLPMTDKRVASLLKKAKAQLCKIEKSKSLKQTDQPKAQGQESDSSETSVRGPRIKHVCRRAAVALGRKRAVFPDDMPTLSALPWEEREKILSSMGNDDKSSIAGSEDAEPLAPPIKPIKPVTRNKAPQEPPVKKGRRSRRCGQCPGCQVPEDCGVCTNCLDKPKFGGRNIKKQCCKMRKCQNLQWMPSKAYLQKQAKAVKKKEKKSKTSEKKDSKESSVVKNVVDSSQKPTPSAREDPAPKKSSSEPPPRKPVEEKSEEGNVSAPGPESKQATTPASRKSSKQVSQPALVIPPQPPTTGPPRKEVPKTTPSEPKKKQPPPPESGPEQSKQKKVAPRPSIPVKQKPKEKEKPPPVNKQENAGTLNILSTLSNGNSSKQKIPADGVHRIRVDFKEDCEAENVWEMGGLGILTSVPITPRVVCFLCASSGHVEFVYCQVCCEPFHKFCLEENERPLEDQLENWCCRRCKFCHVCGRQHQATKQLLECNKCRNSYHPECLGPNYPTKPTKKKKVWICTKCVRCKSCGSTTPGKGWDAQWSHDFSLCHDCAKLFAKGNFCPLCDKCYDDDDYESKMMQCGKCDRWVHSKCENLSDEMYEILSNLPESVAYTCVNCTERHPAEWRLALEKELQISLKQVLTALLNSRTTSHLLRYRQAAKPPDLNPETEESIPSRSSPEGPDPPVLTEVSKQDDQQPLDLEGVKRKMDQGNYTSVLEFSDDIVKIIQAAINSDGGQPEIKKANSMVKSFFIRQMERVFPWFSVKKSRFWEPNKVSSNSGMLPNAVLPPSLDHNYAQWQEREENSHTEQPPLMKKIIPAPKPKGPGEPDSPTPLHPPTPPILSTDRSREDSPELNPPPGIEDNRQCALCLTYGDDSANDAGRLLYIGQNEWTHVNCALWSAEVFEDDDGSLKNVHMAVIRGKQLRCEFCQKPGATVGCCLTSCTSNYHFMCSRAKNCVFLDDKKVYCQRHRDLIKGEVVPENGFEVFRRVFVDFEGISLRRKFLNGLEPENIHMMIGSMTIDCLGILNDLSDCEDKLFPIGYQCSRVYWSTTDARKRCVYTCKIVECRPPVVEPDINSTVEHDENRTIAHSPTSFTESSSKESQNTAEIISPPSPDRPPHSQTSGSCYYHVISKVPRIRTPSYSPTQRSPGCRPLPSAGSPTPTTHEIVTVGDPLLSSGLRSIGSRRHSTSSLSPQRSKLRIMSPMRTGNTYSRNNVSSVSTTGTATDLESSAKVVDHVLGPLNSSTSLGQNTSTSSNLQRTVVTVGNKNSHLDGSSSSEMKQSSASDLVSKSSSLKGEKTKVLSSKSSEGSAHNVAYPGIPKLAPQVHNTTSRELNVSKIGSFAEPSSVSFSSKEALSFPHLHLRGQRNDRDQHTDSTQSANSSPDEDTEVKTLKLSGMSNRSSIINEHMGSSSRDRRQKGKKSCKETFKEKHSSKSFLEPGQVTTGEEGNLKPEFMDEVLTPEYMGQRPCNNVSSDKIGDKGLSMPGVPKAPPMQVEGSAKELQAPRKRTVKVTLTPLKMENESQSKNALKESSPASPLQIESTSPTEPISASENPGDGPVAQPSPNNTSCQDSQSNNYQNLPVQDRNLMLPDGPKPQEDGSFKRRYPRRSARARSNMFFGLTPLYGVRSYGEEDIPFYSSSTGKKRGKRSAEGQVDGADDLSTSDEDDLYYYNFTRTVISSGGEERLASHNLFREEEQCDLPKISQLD
Sequence of Histone-lysine N-methyltransferase 2A (Q03164 2719-3969 limits assumed): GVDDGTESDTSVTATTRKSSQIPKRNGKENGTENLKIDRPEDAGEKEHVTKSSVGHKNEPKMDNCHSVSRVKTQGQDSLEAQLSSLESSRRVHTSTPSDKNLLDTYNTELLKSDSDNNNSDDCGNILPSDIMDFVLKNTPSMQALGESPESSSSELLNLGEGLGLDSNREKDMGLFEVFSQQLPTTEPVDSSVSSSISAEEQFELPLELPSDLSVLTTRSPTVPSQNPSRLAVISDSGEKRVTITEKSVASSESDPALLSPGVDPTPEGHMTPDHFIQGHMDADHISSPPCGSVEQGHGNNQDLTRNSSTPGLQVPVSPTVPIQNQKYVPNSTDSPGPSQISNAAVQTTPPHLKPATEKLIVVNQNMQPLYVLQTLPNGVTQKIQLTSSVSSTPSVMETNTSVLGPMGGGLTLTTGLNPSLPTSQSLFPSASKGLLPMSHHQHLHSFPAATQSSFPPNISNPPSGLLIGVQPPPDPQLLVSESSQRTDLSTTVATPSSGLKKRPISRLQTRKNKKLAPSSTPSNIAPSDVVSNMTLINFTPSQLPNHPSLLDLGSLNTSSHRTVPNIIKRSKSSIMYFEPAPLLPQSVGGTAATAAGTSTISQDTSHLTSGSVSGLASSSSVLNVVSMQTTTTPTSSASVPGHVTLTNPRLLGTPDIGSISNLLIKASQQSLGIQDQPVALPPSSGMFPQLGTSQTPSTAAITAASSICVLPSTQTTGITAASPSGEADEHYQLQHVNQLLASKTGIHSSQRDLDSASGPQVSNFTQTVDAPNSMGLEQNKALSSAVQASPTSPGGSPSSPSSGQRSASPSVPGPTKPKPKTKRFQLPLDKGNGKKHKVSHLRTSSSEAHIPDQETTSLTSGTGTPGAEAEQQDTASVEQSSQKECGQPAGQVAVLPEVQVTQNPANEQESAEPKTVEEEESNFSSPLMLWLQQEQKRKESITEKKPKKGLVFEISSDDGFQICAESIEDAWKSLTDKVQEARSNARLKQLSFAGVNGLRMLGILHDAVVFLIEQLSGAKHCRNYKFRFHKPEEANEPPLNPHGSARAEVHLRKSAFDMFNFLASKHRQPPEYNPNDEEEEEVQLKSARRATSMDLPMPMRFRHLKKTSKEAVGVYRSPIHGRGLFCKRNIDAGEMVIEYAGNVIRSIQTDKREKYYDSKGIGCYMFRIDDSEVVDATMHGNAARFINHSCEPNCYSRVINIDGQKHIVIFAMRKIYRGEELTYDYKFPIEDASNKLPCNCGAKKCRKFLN
Experiment [3] addresses Adenomatous polyposis coli protein (Homo sapiens, UniProt P25054). In words: Binding affinity to APC (unknown origin) assessed as inhibition constant by ITC analysis.
The target of experiment [4] is Catenin beta-1/Transcription factor 7 (Homo sapiens) (UniProt P36402+P35222). In words: Binding affinity to beta-catenin/Tcf (unknown origin) assessed as gibbs free energy change. It counts as protein assay.
The target in a further experiment is Heat shock protein HSP90 (Homo sapiens, UniProt P07900+P08238). In words: Binding affinity to HSP90 (unknown origin) assessed as dissociation constant. In kind it is protein assay.
The nature of experiment [5]: Inhibition of full length GST-tagged Wnt (unknown origin) by luciferase assay. On the set-up: species or system Homo sapiens.
Experiment [6] has as its target Catenin beta-1/Transcription factor 7 (Homo sapiens, UniProt P35222+P36402). Put plainly: Inhibition of N-terminal beta-catenin/full length myc-tagged TCF (unknown origin) trasfected in HEK293 cells measured for 48 hrs by. In kind it is cell-based.
A short description of experiment [7]: Binding affinity to APC/ASEF (unknown origin) protein protein interaction assessed as dissociation constant by ITC analysis. Further details: species or system Homo sapiens.

Sequence of Tumour suppressor protein p53/Mdm4 (P04637 whole entry): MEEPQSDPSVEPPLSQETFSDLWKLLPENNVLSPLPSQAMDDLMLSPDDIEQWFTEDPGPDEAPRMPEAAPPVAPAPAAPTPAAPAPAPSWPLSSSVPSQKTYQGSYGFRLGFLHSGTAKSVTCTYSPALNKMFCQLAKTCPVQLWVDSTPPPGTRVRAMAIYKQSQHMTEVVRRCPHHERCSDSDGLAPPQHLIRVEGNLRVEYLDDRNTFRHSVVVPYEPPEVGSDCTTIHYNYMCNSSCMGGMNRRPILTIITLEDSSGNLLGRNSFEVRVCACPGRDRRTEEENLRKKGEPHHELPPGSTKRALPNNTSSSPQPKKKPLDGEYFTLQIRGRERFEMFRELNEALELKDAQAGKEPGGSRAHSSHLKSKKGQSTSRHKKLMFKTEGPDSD
Sequence of Tumour suppressor protein p53/Mdm4 (O15151 whole entry): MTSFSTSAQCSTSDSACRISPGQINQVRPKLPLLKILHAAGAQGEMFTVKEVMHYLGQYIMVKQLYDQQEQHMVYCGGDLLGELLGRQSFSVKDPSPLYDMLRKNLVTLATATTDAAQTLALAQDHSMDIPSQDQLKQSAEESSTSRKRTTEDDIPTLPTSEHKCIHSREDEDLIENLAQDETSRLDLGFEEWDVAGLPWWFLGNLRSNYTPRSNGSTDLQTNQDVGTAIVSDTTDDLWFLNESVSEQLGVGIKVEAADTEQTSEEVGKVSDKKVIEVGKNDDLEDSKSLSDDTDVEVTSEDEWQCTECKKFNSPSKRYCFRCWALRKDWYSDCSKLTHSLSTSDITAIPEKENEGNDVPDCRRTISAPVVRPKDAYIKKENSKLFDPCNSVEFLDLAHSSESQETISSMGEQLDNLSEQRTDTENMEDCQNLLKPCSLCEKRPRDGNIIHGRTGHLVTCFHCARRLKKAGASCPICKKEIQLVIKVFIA

As a reminder, the IC50 is the point on the concentration scale where inhibition reaches its midpoint. A high value points to lower potency. As to `C[C@](O)(c1cccc(F)c1)c1cn(C2O[C@H](CO)[C@@H](O)[C@H](O)[C@H]2O)nn1` (stereo partly drawn), the IC50 in experiment [1] was 0.00024 µM.
For orientation: Kd means a measure of binding affinity in units of concentration. A word on the Ki: it is a measure of affinity in units of concentration, obtained from inhibition or displacement. For the compound `CC[C@H](C)[C@H](NC(=O)[C@H](CC(=O)O)NC(=O)[C@H](CO)NC(=O)CCNC(=S)Nc1ccc(-c2c3ccc(=O)cc-3oc3cc(O)ccc23)c(C(=O)O)c1)C(=O)N[C@@H](CCSC)C(=O)N[C@@H](CC(=O)O)C(=O)N[C@@H](Cc1ccccc1)C(=O)N[C@H](C(=O)N[C@@H](CC(C)C)C(=O)N[C@@H](CCCCN)C(=O)N[C@@H](CC(N)=O)C(=O)N[C@H](C(=O)N1CCC[C@H]1C(N)=O)[C@@H](C)O)C(C)C` ({X1-βAla}-SDIMDFVLKNTP-NH2), in experiment [2], the Kd was more than 100 µM and the Ki was more than 1000 µM.
`Cc1cn([C@H]2C[C@H](n3cc([C@]4(O)CC[C@H]5[C@@H]6CCc7cc(O)ccc7[C@H]6CC[C@@]54C)nn3)[C@@H](CO)O2)c(=O)[nH]c1=O` showed an IC50 in experiment [1] of 0.0124 µM.
`OC[C@H]1OC(n2cc(-c3ccc(F)cc3F)nn2)[C@H](O)[C@@H](O)[C@@H]1O` (stereo partly drawn): the IC50 in experiment [1] was 0.0001 µM.
Compound `CC(=O)N[C@@H]1C(n2cc(-c3ccc(F)cc3F)nn2)O[C@H](COCc2ccccc2)[C@H](OCc2ccccc2)[C@@H]1OCc1ccccc1` (stereo partly drawn) returned a half-maximal inhibitory concentration (IC50) in experiment [1] of more than 0.1 µM.
With `O=C(N[C@@H](Cn1cc(-c2ccc(F)cc2F)nn1)C(=O)O)OCC1c2ccccc2-c2ccccc21`, in experiment [1], it took 0.00174 µM to reach half-maximal inhibition (IC50).
Consider `C[C@H](NC(=O)OCc1ccccc1)C(=O)NCC(=O)N[C@@H](CCC(=O)O)C(=O)N[C@@H](C)C(=O)N[C@@H](CC1CCCC1)C(=O)N[C@@H](Cc1ccc(O)cc1)C(=O)N[C@@H](CCC(=O)O)C(N)=O` (Cbz-AGEA[Ala(cPent)]YE-NH2), for which the inhibition constant Ki in experiment [3] is 0.015 µM.
In experiment [1], `O=C(N[C@@H](Cn1cc(-c2ccccc2)nn1)C(=O)O)OCC1c2ccccc2-c2ccccc21` had a concentration for half-maximal inhibition (IC50) of 0.00246 µM.
For the compound `C[C@](O)(c1ccccc1)c1cn(C[C@H](NC(=O)OCC2c3ccccc3-c3ccccc32)C(=O)O)nn1`, half-maximal inhibition in experiment [1] (IC50) required 0.00577 µM.
In the case of `COCCN1CC(=O)N(CCc2ccc(OC)cc2)CC(=O)N(c2cc(OC)cc(OC)c2)CC(=O)N(C(C)c2ccc(OC)cc2)CC(=O)N(C(C)c2ccc(OC)cc2)CC(=O)N[C@H](C)C1=O` (stereo partly drawn), in experiment [4], the deltaG was -15.9 kcal/mol.
In turn, `Fc1ccc(-c2cn(CSc3ccccc3)nn2)c(F)c1` showed an IC50 in experiment [1] of more than 0.1 µM.
`CC(=O)N[C@@H]1C(n2cc([C@@](C)(O)c3cccc(F)c3)nn2)O[C@H](COCc2ccccc2)[C@H](OCc2ccccc2)[C@@H]1OCc1ccccc1` (stereo partly drawn): the IC50 in experiment [1] stood at 0.0224 µM. The Kd at Heat shock protein HSP90 turned out to be 21.1 µM.
Regarding `COc1ccc([C@H](C)N2CC(=O)N[C@H](C)C(=O)N(CCc3ccccc3Oc3ccccc3)CC(=O)N(c3cc(OC)cc(OC)c3)CC(=O)N(CCCOC(C)C)CC(=O)N([C@@H](C)c3ccc(OC)cc3)CC2=O)cc1` (cyclo([dA][N(2-(2-PhOPh)Et)Gly][Gly(N-3,5-(OMe)2-Ph)][N((CH2)3OiPr)Gly][X2][X2])), the IC50 in experiment [5] stood at 0.105 µM; in experiment [6], 5.44 µM.
`C[C@](O)(c1cccc(F)c1)c1cn(CSc2ccccc2)nn1` had an IC50 in experiment [1] of 0.008 µM.
Turning to `CCC(C)C(NC(=O)C(C)NC(=O)[C@H](CC(C)C)NC(=O)[C@H](CCC(N)=O)NC(=O)[C@H](CCC(=O)O)NC(=O)CNC(=O)CNC(C)=O)C(N)=O` (stereo partly drawn) (Ac-GGEQL[ξA][ξI]-NH2), the Kd in experiment [7] was 0.018 µM.

These data come from ChEMBL document CHEMBL5230108, “Computational methods-guided design of modulators targeting protein-protein interactions (PPIs)” (Eur J Med Chem, 2020).
